Measurements reported in patent US12728120B2, “Prevention or treatment of brain disease and adverse effects of cholinesterase inhibitors” (DR. NOAH BIOTECH INC., priority 2021, dated 2026).
Where a name gives a salt, the structure may show the parent alone.

Tests used:
neuronal cells (SH-SY5Y) = experiment: ROS production (DCF-DA) in H2O2-treated SH-SY5Y cells; assay type: cell-based; conditions: 100 μM H2O2 24 hours, DONE alone 5 uM, NAC alone 5 uM, NDC = DONE 2.5 uM + NAC 2.5 uM, FIG. 3
Method: SH-SY5Y cells were plated in 96 well plates at 2×10^5 cells/well in DMEM supplemented with 10% fetal bovine serum (FBS; YOUNG IN, US-FBS-500) and 1% penicillin-streptomycin (P-S; Gibco, 15070063). Six hours after seeding, SH-SY5Y cells were treated with 100 μM H2O2 for 24 hours (Sigma, #323381) followed by incubation with DONE alone, NAC alone, and combination of DONE and NAC. After incubation, ROS activity in the cell was measured by adding DCF-DA (Thermo, #D399) containing media. Absorbance was measured using a Synergy HTX Multi-Mode reader (Biotek) with 465 nm excitation and 540 nm emission. Measured fluorescence was normalized to control as follows: (drug-treated group OD−DCF-DA alone O.D)/(control O.D−DCF alone O.D)*100.

PSD-95 = PSD-95 expression (western blot) in primary cultured neurons; assay type: cell-based, mice; conditions: mouse primary neuro-glia culture, 4 days treatment, β-actin normalized; FIG. 14B
Method: (§1) To evaluate the synaptic plasticity, primary neuro-glia culture was prepared from cortices of embryonic day 16 C57/BL6 mice. Cells were collected by mechanical dissection and chemical dissociation with trypsin and DNase treatment and cultured in Neurobasal (NB) and MEM media supplemented with 1% B-27, 2 mM L-glutamine, 5% Fetal Bovine Serum, 5% Horse Serum, 1×MEM-NEAA (non-essential amino acids), and 1% Penicillin-Streptomycin (PS). Cells were cultured in Poly-D-Lysine+Laminin-coated 6-well plates at 2×10^6 cells/well in growth media. After 3 days in vitro (DIV 3), media was changed to NB media supplemented with 2% B-27, 2 mM L-glutamine, and 1% PS. […] Protein was resolved by 8% SDS-PAGE electrophoresis, transferred to polyvinylidene difluoride membranes and blocked with 5% non-fat dry milk for 1 hour at RT. Membrane was immunoblotted using following antibodies; primary antibody: PSD-95 (Abcam, ab18258, 1:2,000), phospho-CREB (Millipore, #06-519, 1:2,000), β-actin (Cell signaling, #3700, 1:3,000), and secondary antibody:HRP-conjugated anti-mouse IgG (AbFrontier, LF-SA8001, 1:5,000), HRP-conjugated anti-rabbit IgG (AbFrontier, LF-SA8002, 1:5,000). Signal was visualized by chemiluminescence methods using ECL solution and imaged using ImageQuant LAS 500 system. […]

pCREB = pCREB expression (western blot) in primary cultured neurons; assay type: cell-based, mice; conditions: mouse primary neuro-glia culture, 4 days treatment, β-actin normalized; FIG. 14C
Method: as §1

[1] = system: cerebral infarction-reperfusion model in Sprague-Dawley rats; experiment: Rotarod test in MCAO-reperfusion stroke model; assay type: in vivo; conditions: for Rotarod score (fall latency normalized to day 1), mean value: I.V. daily, FIG. 15
Method: The Rotarod test was performed on the 1, 3, 7, 14, and 21 days after 45 minutes-MCAO (middle cerebral artery occlusion)-reperfusion modelling to induced ischemia (Brain Stroke). […] The animal was carefully placed on a rotating rod (JD-A-07RA5, BS Technolab Inc., Korea) and the time (second) that animal was fallen was measured. The speed of rotating rod was increased from 4 rpm to 40 rpm for 300 second. […] For rotarod latency test, Nested one-way ANOVA and Two-way ANOVA was used to analyze significance between the groups on each day. Statistical analysis was performed using Prism 9 (GraphPad Software Inc., San Diego, CA, USA) and statistical significance was set at a P-value of less than 0.05.

microglia cells (BV2) = experiment: NO assay (Griess reagent) in LPS-treated BV2 microglial cells; assay type: cell-based; conditions: donepezil HCl alone, antioxidant alone or combination, FIG. 8
Method: Briefly, BV2 microglial cells were plated in 96-well plates at 2×10^5 cells/well in DMEM high glucose medium (Welgene, LM001-05) supplemented with 10% fetal bovine serum (FBS; YOUNG IN, US-FBS-500) and 1% penicillin-streptomycin (P-S; Gibco, 15070063).
After incubation, NO levels were quantified from half of the cell media using a Griess reagent assay kit (Promega, G2930). Colorimetric changes in the media and Griess reagent mixture were measured using a Synergy HTX Multi-Mode reader (Biotek) at 540 nm. All data were analyzed using the GraphPad Prism 9 software. Statistical significance was assessed using a one-way ANOVA or two-way ANOVA followed by Dunnett's post-hoc analysis unless otherwise noted. All data are presented as the mean±SEM, and significance was set at P<0.05. […] (*P<0.05, **P<0.01, ***P<0.001, ****P<0.0001, one-way ANOVA).

neural progenitor cells = experiment: Number of viable cells (cytotoxicity) in neural progenitor cells; conditions: with donepezil, NAC or their combination; FIG. 13B

## COc1cc2c(cc1OC)C(=O)C(CC1CCN(Cc3ccccc3)CC1)C2 (stereo not shown) [Donepezil-HCl, donepezil]
Neuronal cells (SH-SY5Y)
  ROS, mean value normalized to control (CTL 100%): 76.52%
PSD-95
  PSD-95 expression, mean value normalized to untreated control (CTL 1.0): 1.20
pCREB
  pCREB expression, mean value normalized to untreated control (CTL 1.0): 0.92
[1]; day 3 after MCAO
  Rotarod score normalized to VEH (100%): 93.92%
  Rotarod score (fall latency normalized to day 1), mean value: 15.77
[1]; day 7 after MCAO
  Rotarod score (fall latency normalized to day 1), mean value: 30.61
[1]; day 14 after MCAO
  Rotarod score normalized to VEH (100%): 81.08%
  Rotarod score (fall latency normalized to day 1), mean value: 39.30
[1]; day 21 after MCAO
  Rotarod score normalized to VEH (100%): 77.68%
  Rotarod score (fall latency normalized to day 1), mean value: 49.53

## COc1ccc([C@H]2OC[C@H]3[C@@H]2CO[C@H]3c2ccc(O[C@@H]3O[C@H](CO)[C@@H](O)[C@H](O)[C@H]3O)c(OC)c2)cc1OC [Forsythin]
Microglia cells (BV2)
  NO, mean value relative to LPS (100%): 89.97%

## O=C(O)CCCCC1CCSS1 (stereo not shown) [Thioctic acid]
Microglia cells (BV2)
  NO, mean value relative to LPS (100%): 68.45%

## CO[C@H]1C[C@@H]2CC[C@@H](C)[C@@](O)(O2)C(=O)C(=O)N2CCCC[C@H]2C(=O)O[C@H]([C@H](C)C[C@@H]2CC[C@@H](O)[C@H](OC)C2)CC(=O)[C@H](C)/C=C(\C)[C@@H](O)[C@@H](OC)C(=O)[C@H](C)C[C@H](C)/C=C/C=C/C=C/1C [rapamycin]
Neural progenitor cells
  cytotoxicity on addition of rapamycin: did not induce cytotoxicity
